Assays:
human Jurkat cells = assay: Uptake of IgG2a-Alexa488 mediated by anti-IgG2a conjugates (flow cytometry); format: cell-based; settings: 1 h and 24 h
Method: The anti-IgG2a conjugates were bound to IgG2a-Alexa488, as follows: equal molar ratios of anti-IgG2a and IgG2a-Alexa488 were added in tissue culture media for 30 minutes at room temperature. The resulting anti-IgG2a:IgG2a antibody-Alexa488 compositions were added to human Jurkat cells (100 k cells/50 ul per well, n=2), and Alexa488 fluorescence levels were measured (via Alexa488 measurement) at 1 hour and 24 hours by flow cytometry. Because Alexa488 accumulates in cells, this presents a way to measure total intracellular uptake by cells over time.

[1] = mice, intravenous, 10 μg/mouse; serum rIgG1 at 0.5-24 hours; compared with Compound I-7 conjugate
Method: A pharmacokinetic analysis of the rIgG1 (anti-IgG2a) antibody conjugates described in the previous example was performed in mice. In particular, C57B6 mice were intravenously administered each rIgG1 antibody conjugate at 10 μg/mouse (5 mice per group). Blood was collected at 0.5, 1, 2, 6, and 24 hours and serum rIgG1 was analyzed using an ELISA kit (Abcam) according to the manufacturer's instructions. Samples were run across 3 different plates with unconjugated rIgG1 controls (UNLB-anti-IgG2a rIgG1) included on all 3 plates.

[2] = molecular target: T1, recombinant human CI-M6PR protein (Homo sapiens, UniProt P11717); assay: M6PR binding ELISA of matuzumab conjugates; settings: antibody conjugates of the ligand-linkers
T1 construct: purchased R&D 6418-GR-050
Method: Binding affinity of matuzumab conjugated to ligand-linkers for M6PR was determined by ELISA using the following protocol: Nunc black solid bottom MaxiSorp plates were allowed to incubate overnight at 4° C. coated with 1 μg/mL of recombinant human CI-M6PR protein (R&D, 6418-GR-050) in 50 μL PBS. The next day, coating was decanted and plates were washed 3× with PBS. Wells were blocked with 350 μL of 3% BSA-PBS for 1 hour at room temperature. […] 50 μL of diluted conjugates were added to the plate and allowed to incubate at room temperature for 2 hours. After incubation, solutions in plate were decanted and washed with 350 μL of 0.05% PBS-Tween20 three times, drying the plate each wash on a clean paper towel. 50 μL of peroxidase AffiniPure Mouse Anti-Human IgG (Jackson Immuno, 209-035-088) diluted in 3% BSA-PBS to 0.2 μg/mL was added to the plate and allowed to incubate for 1 hour at room temperature in the dark. After incubation, solutions in plate were decanted and washed with 350 μL of 0.05% PBS-Tween20 3 times, drying the plate each wash on a clean paper towel. […] 50 μL of QuantaBlu solution was added to wells and allowed to incubate for 5-10 minutes at room temperature. After incubation, plates were read on a Perkin Elmer EnVision using photometric 340 and Umbelliferone 460 filter sets for excitation and emission, respectively. Data analysis and non-linear curve-fitting was performed using GraphPad Prism.

human HepG2 cells = assay: Transduction efficiency of AAV8 particle conjugates in HepG2 cells (GFP); format: cell-based; settings: increasing MOI, 72 hrs, compared with unconjugated AAV8
Method: Transduction efficiency of AAV8 particle conjugates was also measured in human HepG2 cells and compared to that of an unconjugated AAV-CMV-GFP control (“AAV8 GFP-UNLB”). HepG2 cells were transduced with increasing multiplicity of infection (MOI) of unconjugated AAV8, AAV8 conjugated to Compound I-7 (ITX-16590), and AAV conjugated to Compound I-124 (ITX-22701) or different molar rations of AAV8 conjugated to Compound I-124 (ITX-22701).
In performing the experiments described above, 2V6·11 cells (Elab Science) in DMEM (Gibco) with 10% fetal bovine serum (Gibco) were seeded onto 96-well plates (Nunc) at a concentration of 20 k cells/well 24 hours prior to infection. Jurkat cells (ATCC) in RPMI (Gibco) with 10% fetal bovine serum (Gibco) were seeded onto 96-well plates (Nunc) 1 h prior to transduction. HepG2 cells (ATCC) in EMEM (Gibco) with 10% fetal bovine serum (Gibco) were seeded onto 96-well plates (Nunc) 24 hours prior to infection. […]
After the incubation period, the medium was aspirated, the cells were washed with PBS and analyzed for GFP expression via flow cytometry on BioRad ZES Cell Analyzer (BioRad) or analyzed for luciferase levels using a luciferase assay kit (Promega) following manufacture's protocol and using a luminometer.

T1 sequence (P11717 41-1365 limits assumed): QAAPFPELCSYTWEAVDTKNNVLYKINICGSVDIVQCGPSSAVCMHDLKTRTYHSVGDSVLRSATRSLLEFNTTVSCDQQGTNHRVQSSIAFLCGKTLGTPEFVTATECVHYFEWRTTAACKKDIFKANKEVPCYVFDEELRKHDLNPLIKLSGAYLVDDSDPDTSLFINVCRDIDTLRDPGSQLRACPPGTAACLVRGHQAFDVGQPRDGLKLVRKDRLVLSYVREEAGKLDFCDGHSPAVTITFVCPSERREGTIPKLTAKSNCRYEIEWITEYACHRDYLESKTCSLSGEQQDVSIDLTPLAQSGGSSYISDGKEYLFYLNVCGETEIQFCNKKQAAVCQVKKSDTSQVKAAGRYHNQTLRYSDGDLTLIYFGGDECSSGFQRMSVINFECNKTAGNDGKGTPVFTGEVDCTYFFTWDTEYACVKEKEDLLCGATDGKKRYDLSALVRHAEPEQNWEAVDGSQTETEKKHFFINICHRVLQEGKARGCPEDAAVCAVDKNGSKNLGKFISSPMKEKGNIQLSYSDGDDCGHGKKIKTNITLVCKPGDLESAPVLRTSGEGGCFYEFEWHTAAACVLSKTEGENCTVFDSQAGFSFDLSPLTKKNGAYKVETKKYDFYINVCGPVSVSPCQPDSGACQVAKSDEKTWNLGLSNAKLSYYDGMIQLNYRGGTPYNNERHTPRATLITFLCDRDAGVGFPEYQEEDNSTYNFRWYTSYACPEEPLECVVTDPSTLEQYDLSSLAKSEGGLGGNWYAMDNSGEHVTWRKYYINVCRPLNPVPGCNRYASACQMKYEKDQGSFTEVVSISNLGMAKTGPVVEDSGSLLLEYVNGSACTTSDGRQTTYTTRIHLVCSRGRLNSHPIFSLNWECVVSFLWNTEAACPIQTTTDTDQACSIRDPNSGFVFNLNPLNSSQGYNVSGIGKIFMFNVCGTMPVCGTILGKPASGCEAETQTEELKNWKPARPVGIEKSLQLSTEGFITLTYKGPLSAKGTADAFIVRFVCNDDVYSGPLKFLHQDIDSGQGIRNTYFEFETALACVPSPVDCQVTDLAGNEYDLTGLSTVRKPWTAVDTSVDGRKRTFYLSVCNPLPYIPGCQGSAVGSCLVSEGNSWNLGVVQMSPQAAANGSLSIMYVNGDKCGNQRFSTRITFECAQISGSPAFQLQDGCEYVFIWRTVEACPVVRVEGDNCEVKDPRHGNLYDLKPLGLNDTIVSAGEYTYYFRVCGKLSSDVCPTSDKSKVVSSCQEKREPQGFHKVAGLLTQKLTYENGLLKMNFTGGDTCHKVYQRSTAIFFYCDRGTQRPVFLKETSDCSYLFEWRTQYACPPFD

Molecule | intracellular uptake (Alexa488 fluorescence) (human Jurkat cells) | half-life in serum [1] | binding affinity for M6PR [2] | transduction efficiency (percentage of GFP positive cells, MFI) (human HepG2 cells)
O=C(CCOCCOCCOCCOCCOCCOCCOCCOCCn1cc(CCO[C@H]2O[C@H](CCP(=O)(O)O)[C@@H](O)[C@H](O)[C@@H]2O)nn1)Oc1c(F)c(F)c(F)c(F)c1F [Compound I-9] | sufficiently robust uptake | – | – | –
O=C(CCN1C(=O)C=CC1=O)NCCOCCOCCOCCn1cc(CCO[C@H]2O[C@H](CCP(=O)(O)O)[C@@H](O)[C@H](O)[C@@H]2O)nn1 [Compound I-10] | – | longer half-life | weaker binding affinity to M6PR compared to Compound I-7 | –
CC(=O)N[C@H]1[C@H](OCCCCC(=O)NCCCNC(=O)CCOCC(COCCC(=O)NCCCNC(=O)CCCCO[C@@H]2O[C@H](CO)[C@H](O)[C@H](O)[C@H]2NC(C)=O)(COCCC(=O)NCCCNC(=O)CCCCO[C@@H]2O[C@H](CO)[C@H](O)[C@H](O)[C@H]2NC(C)=O)NC(=O)CCCCCCCCCCC(=O)Oc2c(F)c(F)c(F)c(F)c2F)O[C@H](CO)[C@H](O)[C@@H]1O [Compound I-124] | – | – | – | greater transduction efficiency than unconjugated AAV8
O=C(CCOCCOCCOCCN(CCOCCOCCOCCn1cc(CCO[C@H]2O[C@H](CCP(=O)(O)O)[C@@H](O)[C@H](O)[C@@H]2O)nn1)CCOCCOCCOCCn1cc(CCO[C@H]2O[C@H](CCP(=O)(O)O)[C@@H](O)[C@H](O)[C@@H]2O)nn1)Oc1c(F)c(F)c(F)c(F)c1F [Compound I-12] | sufficiently robust uptake | longer half-life | weaker binding affinity to M6PR compared to Compound I-7 | –
O=C(CCOCCn1cc(CCO[C@H]2O[C@H](CCP(=O)(O)O)[C@@H](O)[C@H](O)[C@@H]2O)nn1)Oc1c(F)c(F)c(F)c(F)c1F [Compound I-11] | sufficiently robust uptake | longer half-life | weaker binding affinity to M6PR compared to Compound I-7 | –
Compound I-11d4: "matuzumab-Compound I-11 (d4)" conjugate tested for M6PR binding (conjugate, left off: a dimerising Fc or GST) heavy: QVQLVQSGAEVKKPGASVKVSCKASGYTFTSHWMHWVRQAPGQGLEWIGEFNPSNGRTNYNEKFKSKATMTVDTSTNTAYMELSSLRSEDTAVYYCASRDYDYAGRYFDYWGQGTLVTVSSASTKGPSVFPLAPSSKSTSGGTAALGCLVKDYFPEPVTVSWNSGALTSGVHTFPAVLQSSGLYSLSSVVTVPSSSLGTQTYICNVNHKPSNTKVDKKVEPKS light: DIQMTQSPSSLSASVGDRVTITCSASSSVTYMYWYQQKPGKAPKLLIYDTSNLASGVPSRFSGSGSGTDYTFTISSLQPEDIATYYCQQWSSHIFTFGQGTKVEIKRTVAAPSVFIFPPSDEQLKSGTASVVCLLNNFYPREAKVQWKVDNALQSGNSQESVTEQDSKDSTYSLSSTLTLSKADYEKHKVYACEVTHQGLSSPVTKSFNRGE | – | – | lowest | –

Source: patent publication US20230226214A1, “BIFUNCTIONAL BRIDGING COMPOSITIONS FOR VIRAL TRANSDUCTION” (Lycia Therapeutics, Inc., priority 2020, published 2023)
